Test results published in article PMC8999917, “Structure–Activity Relationship of Synthetic Ginkgolic Acid Analogs for Treating Type 2 Diabetes by PTPN9 Inhibition” (International Journal of Molecular Sciences, 2022).

Key:
[1] = biological target: T1, DUSP9 (Homo sapiens, UniProt Q99956); assay: DUSP9 enzyme inhibition with DiFMUP substrate; type: biochemical; settings: DiFMUP 90 µM, DUSP9 200 nM; NA: no activity
T1 construct: made in house; host or cells: Escherichia coli Rosetta (DE3)
T1 sequence (Q99956 1-384): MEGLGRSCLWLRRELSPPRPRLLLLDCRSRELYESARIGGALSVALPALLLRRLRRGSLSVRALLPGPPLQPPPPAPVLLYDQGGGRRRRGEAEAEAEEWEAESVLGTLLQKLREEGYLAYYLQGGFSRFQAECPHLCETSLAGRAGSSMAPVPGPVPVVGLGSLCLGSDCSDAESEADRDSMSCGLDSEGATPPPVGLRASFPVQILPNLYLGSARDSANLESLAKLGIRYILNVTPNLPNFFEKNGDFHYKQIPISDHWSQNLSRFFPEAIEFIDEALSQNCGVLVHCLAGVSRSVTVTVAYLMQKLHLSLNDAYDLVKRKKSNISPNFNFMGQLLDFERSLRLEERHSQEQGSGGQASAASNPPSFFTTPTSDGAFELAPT
Protocol: (§1) The purification and kinetic analyses of PTPN9 and DUSP9 (Ser277–581) were performed following methods described in the literature, with slight modifications. PAGE analysis data and enzyme kinetic constants are presented in Figure S1 and Table S1, respectively. Enzyme activity in the presence or absence of the compounds was measured using DiFMUP, a representative PTP fluorogenic substrate. First, the inhibitory effects of compounds 1–3 were evaluated using 50 µM PTPN9 and 20 µM DUSP9. There was an increase in the inhibitory activity of compound 1 for both enzymes as the number of CH2 units increased from 9 to 14 (Figure 2A,B).
(§2) Next, the IC50 values of the compounds, which induce a 50% inhibition of DiFMUP hydrolytic enzyme activity, were determined (Table 1). The IC50 values were determined from the dose–response enzyme inhibition curves of each compound. The dose–response curves for compounds 1e and 1f against PTPN9 and DUSP9, respectively, are presented in Figure 2C,D. Dose–response curves were also obtained for the other compounds (Figures S2 and S3).
(§3) The methods employed for PTP overexpression and purification have been described in a previous study. In brief, human PTPN9 and DUSP9 were cloned into a pET28a vector (Merk Millipore, Darmstadt, Germany) containing a hexahistidine (His6) tag or a maltose-binding protein (MBP) tag in its N-terminus (see Supplementary Materials). Recombinant genes were separately transformed into Escherichia coli Rosetta (DE3) (Merk Millipore, Darmstadt, Germany), and the overexpression of each gene was induced via the addition of 0.1 mM IPTG (Ducherfa Biochemie, Haarlem, RV, USA). After 16 h of incubation at 18 °C, cell pellets were obtained via centrifugation (3570× g at 4 °C for 15 min), resuspended in lysis buffer (50 mM Tris, pH: 7.5, 500 mM NaCl, 5% glycerol, 0.025% 2-mercaptoethanol, and 1 mM phenyl-methylsulfonyl fluoride (PMSF)), and lysed by ultrasonication. Subsequently, cell lysates were centrifuged at 29,820× g for 30 min at 4 °C; then, the supernatant was collected and incubated with a cobalt affinity resin (TALON® Metal Affinity Resin, Takara Korea, Seoul, Korea). After 1 h of incubation at 4 °C, the desired proteins were eluted by adding the lysis buffer supplemented with 100 mM imidazole. Samples were stored at –80 °C until use.
(§4) The enzymatic activities of purified PTPN9 and DUSP9 were measured using 6,8-difluoro-4-methylumbelliferyl phosphate (DiFMUP), the most widely used fluorogenic PTP substrate in the literature. To determine KM values, PTPN9 (0.15 nM) and DUSP9 (200 nM) were added to a reaction buffer (20 mM Bis-tris, pH: 7.0, 150 mM NaCl, 2.5 mM dithiothreitol (DTT), and 0.01% Triton X-100) containing DiFMUP (800, 400, 200, 100, 50, 25, 12.5, or 6.25 μM) in a 96-well black plate. The final reaction volume was 100 µL. The fluorescence intensity was continuously monitored for 10 min (Ex/Em = 355/460 nm) on a Victor™ X4 multilabel plate reader (Perkin Elmer, Norwalk, CT, USA). KM values were obtained using Lineweaver–Burk plots analysis.
(§5) To evaluate the enzyme inhibitory effects of GA and its analogs, 10 µl of the enzyme stock solution (1.5 nM PTPN9 and 2 µM DUSP9) in the reaction buffer was added into the mixture of DiFMUP (to a final concentration of 220 µM and 90 µM for PTPN9 and DUSP9, respectively) and each compound (to a final concentration of 50 µM and 20 µM for PTPN9 and DUSP9, respectively) was added to the reaction buffer. Enzyme activity was measured as described above. Half-inhibitory concentration (IC50) values were determined under similar conditions, except for the concentrations of the inhibitors (200, 100, 50, 25, 12.5, 6.25, or 3.125 µM for PTPN9 and 25, 12.5, 6.25, 3.125, 1.563, 0.782, or 0.391 µM for DUSP9). The dose-dependent curve was fitted to the four-parameter logistic regression equation, (y = a + (b – a)/(1 + (x/c)^d), to obtain IC50 values using the Kaleida Graph software Ver. 4.1.3. (Synergy Software Inc, PA, USA).

[2] = biological target: T2, PTPN9 (Homo sapiens, UniProt P43378); assay: PTPN9 enzyme inhibition with DiFMUP substrate; type: biochemical; settings: DiFMUP 220 µM, PTPN9 0.15 nM; NA: no activity
T2 construct: made in house; host or cells: Escherichia coli Rosetta (DE3)
T2 sequence (P43378 277-581): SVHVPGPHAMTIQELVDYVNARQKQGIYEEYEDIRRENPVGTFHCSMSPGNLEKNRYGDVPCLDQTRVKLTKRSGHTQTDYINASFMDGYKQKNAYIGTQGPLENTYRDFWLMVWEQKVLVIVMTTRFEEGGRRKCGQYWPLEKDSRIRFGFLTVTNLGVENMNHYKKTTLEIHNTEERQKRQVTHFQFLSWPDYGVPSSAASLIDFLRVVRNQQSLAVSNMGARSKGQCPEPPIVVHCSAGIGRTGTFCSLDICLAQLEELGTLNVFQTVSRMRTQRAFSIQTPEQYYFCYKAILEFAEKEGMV
Protocol: as §1, §2, §3, §4, §5

[3] = tested on: 3T3-L1 adipocytes; assay: 2-NBDG glucose uptake assay in differentiated 3T3-L1 adipocytes; type: cell-based, mouse; settings: 100 nM
Protocol: PTPN9 inhibitors have been reported to increase glucose uptake. To clarify the antidiabetic effects of GA analogs, a 2-NBDG (a fluorescent glucose probe) uptake assay was performed using differentiated 3T3-L1 adipocytes and C2C12 myotubes. After 16 h of starvation, differentiated 3T3-L1 adipocytes were incubated with compounds 1e and 1f for another 1 h. The cells were subsequently incubated with 2-NBDG for 30 min and washed with PBS before quantifying the fluorescence of 2-NBDG taken up by the cells. The 2-NBDG uptake-increasing effects of GA and its analogs in 3T3-L1 cells were monitored via confocal microscopy. The blank group was set in the absence of 2-NBDG but was treated with DMSO to determine the basal fluorescence levels in 3T3-L1 adipocytes (Figure 4A, Basal); in the negative control group, 3T3-L1 adipocytes were treated with 2-NBDG and DMSO for the evaluation of basal glucose uptake levels (Figure 4A, DMSO). […] Furthermore, to quantify 2-NBDG uptake, fluorescence intensity (Ex/Em = 485/535 nm) was measured using a plate reader. […] After incubation, the cells were washed with pre-cold PBS, and the fluorescence intensity was measured using a fluorescence microplate reader (Victor^TM X4, PerkinElmer, Waltham, MA, USA) (Ex/Em = 485/535 nm). […]

[4] = biological target: T2, PTPN9; assay: Kinetics of DiFMUP hydrolysis by PTPN9; type: biochemical; settings: [E] 0.15 nM
Protocol: (§6) The purification and kinetic analyses of PTPN9 and DUSP9 (Ser277–581) were performed following methods described in the literature, with slight modifications. […] Enzyme activity in the presence or absence of the compounds was measured using DiFMUP, a representative PTP fluorogenic substrate.
as §4

[5] = biological target: T1, DUSP9; assay: Kinetics of DiFMUP hydrolysis by DUSP9; type: biochemical; settings: [E] 200.0 nM
Protocol: as §6, §4

Row | Compound | IC50 [1] [µM] | IC50 [2] [µM] | further results
1 | CCCCCCCCCCCCOc1cccc(O)c1C(=O)O [Compound 1d] | 8.61 ± 0.66 | 28.54 ± 0.1 | 
2 | Insulin: positive control (100 nM) in the 2-NBDG uptake assay |  |  | 2-NBDG uptake (positive control) [3]: significantly stimulated 2-NBDG uptake
3 | Cc1cc(=O)oc2c(F)c(OP(=O)(O)O)c(F)cc12 [DiFMUP, 6,8-difluoro-4-methylumbelliferyl phosphate] |  |  | Km [4]: 110 µM; Vmax [4]: 1.73 μMmin-1; Km [5]: 45 µM; Vmax [5]: 1.65 μMmin-1; kcat [5]: 0.138 s⁻¹
4 | CCCCCCCCCCCOc1cccc(O)c1C(=O)O [Compound 1c] | 23.9 ± 0.65 | 77.1 ± 0.78 | 
5 | CCCCCCCCCCCCCOc1ccc(C(=O)O)c(O)c1 [Compound 2] | 5.27 ± 0.07 | 69.3 ± 6.22 | 
6 | CCCCCCCCCCCCCOc1ccc(O)c(C(=O)O)c1 [Compound 3] | 4.68 ± 0.06 | 36.5 ± 1 | 
